According to PubChem BioAssay AID1259408 (Genetic Toxicology Data Bank (GENE-TOX), 2018):
Calls of active or inactive are those of the source. How the calls were made is not given here.

Test system: GENE-TOX genotoxicity assays, various organisms and cells
Assay: GENE-TOX mutagenicity studies
[1] = Species/Cell Type: Human lymphocytes, Assay Type: Sister-chromatid exchange (SCE) in vitro, Assay Code: SCL+, Evaluation Type: Evaluation B (Post-1980)
[2] = Species/Cell Type: Human, Assay Type: Sister-chromatid exchange (SCE) in vitro, Assay Code: SC1+, Evaluation Type: Evaluation B (Post-1980)
[3] = Species/Cell Type: Nonhuman bone marrow, Assay Type: Chromosome aberrations, in vivo, Assay Code: CY#+, Evaluation Type: Evaluation A (Pre-1980)
[4] = Species/Cell Type: Nonhuman, Assay Type: Sister-chromatid exchange (SCE) in vitro, Assay Code: SC2+D, Dose Response: With dose response, Evaluation Type: Evaluation B (Post-1980)
[5] = Species/Cell Type: Nonhuman, Assay Type: Sister-chromatid exchange (SCE) in vivo, Assay Code: SC3+D, Dose Response: With dose response, Evaluation Type: Evaluation B (Post-1980)
[6] = Species/Cell Type: Saccharomyces cerevisiae, Assay Type: Reverse gene mutation, Assay Code: YER+, Evaluation Type: Evaluation A (Pre-1980)
[7] = Species/Cell Type: Mammalian polychromatic erythrocytes, Assay Type: Micronucleus test, chromosome aberrations, Assay Code: MNTT, Evaluation Type: Evaluation B (Post-1980)

SMILES: C1CN1c1nc(N2CC2)nc(N2CC2)n1
- mutagenic call (Species/Cell Type: Allium cepa, Assay Type: Chromosome aberrations, Assay Code: ALC+, Evaluation Type: Evaluation A (Pre-1980)): active; positive
- mutagenic call (Species/Cell Type: Arabidopsis species, Assay Type: Gene mutation, Assay Code: ARM-, Evaluation Type: Evaluation A (Pre-1980)): inactive; negative
- mutagenic call (Species/Cell Type: Drosophila melanogaster, Assay Type: Sex-linked recessive lethal gene mutation, Assay Code: SRL+, Evaluation Type: Evaluation A (Pre-1980)): active; positive
- mutagenic call (Species/Cell Type: Drosophila melanogaster, Sex: Male, Assay Type: Heritable translocation test, chromosome aberrations, Assay Code: DHT+, Evaluation Type: Evaluation A (Pre-1980)): active; positive
- mutagenic call (Species/Cell Type: F1 mouse, Sex: Male, Assay Type: Sperm morphology, Assay Code: SPF+, Evaluation Type: Evaluation A (Pre-1980)): active; positive
- mutagenic call [1]: active; positive
- mutagenic call [2]: active; positive
- mutagenic call (Species/Cell Type: Mammalian germ cells, Sex: Male, Assay Type: Chromosome aberrations in vivo, Assay Code: CY9+, Evaluation Type: Evaluation A (Pre-1980)): active; positive
- mutagenic call (Species/Cell Type: Mammalian oocytes or early embryo, Assay Type: Chromosome aberrations in vivo, Assay Code: CYO+, Evaluation Type: Evaluation A (Pre-1980)): active; positive
- mutagenic call (Species/Cell Type: Mammalian polychromatic erythrocytes, Assay Type: Micronucleus test, chromosome aberrations, Assay Code: MNT+, Evaluation Type: Evaluation A (Pre-1980)): active; positive
- mutagenic call (Species/Cell Type: Mouse germ cells, Sex: Male, Assay Type: Unscheduled DNA synthesis (UDS) in vivo, DNA effects, Assay Code: UDT+, Evaluation Type: Evaluation A (Pre-1980)): active; positive
- mutagenic call (Species/Cell Type: Mouse, Sex: Female, Assay Type: Spot test, gene mutation, Assay Code: MSTT, Evaluation Type: Evaluation A (Pre-1980)): no conclusion
- mutagenic call (Species/Cell Type: Mouse, Sex: Male, Assay Type: Heritable translocation test, chromosome aberrations, Assay Code: HTT+, Evaluation Type: Evaluation A (Pre-1980)): active; positive
- mutagenic call (Species/Cell Type: Mouse, Sex: Male, Assay Type: Specific locus test, gene mutation, Assay Code: SLT+, Evaluation Type: Evaluation A (Pre-1980)): active; positive
- mutagenic call (Species/Cell Type: Mouse, Sex: Male, Assay Type: Sperm morphology, Assay Code: SPI+, Evaluation Type: Evaluation A (Pre-1980)): active; positive
- mutagenic call [3]: active; positive
- call (Species/Cell Type: Nonhuman, Assay Type: In vivo carcinogenicity studies, Assay Code: CCG+L, Evaluation Type: Evaluation A (Pre-1980)): active; positive
- mutagenic call [4]: active; positive
- mutagenic call [5]: active; positive
- mutagenic call (Species/Cell Type: Rabbit, Sex: Male, Assay Type: Sperm morphology, Assay Code: SPRT, Evaluation Type: Evaluation A (Pre-1980)): no conclusion
- mutagenic call (Species/Cell Type: Rodents, Sex: Male, Assay Type: Dominant lethal test, Assay Code: DLT+D, Dose Response: With dose response, Evaluation Type: Evaluation A (Pre-1980)): active; positive
- mutagenic call (Species/Cell Type: Saccharomyces cerevisiae, Assay Type: Forward and reverse gene mutation, mitotic recombination and gene conversion, host-mediated assay, Assay Code: HME+, Evaluation Type: Evaluation A (Pre-1980)): active; positive
- mutagenic call (Species/Cell Type: Saccharomyces cerevisiae, Assay Type: Forward gene mutation, Assay Code: YEF+, Evaluation Type: Evaluation A (Pre-1980)): active; positive
- mutagenic call (Species/Cell Type: Saccharomyces cerevisiae, Assay Type: Mitotic recombination or gene conversion, Assay Code: YEC+, Evaluation Type: Evaluation A (Pre-1980)): active; positive
- mutagenic call (Species/Cell Type: Saccharomyces cerevisiae, Assay Type: Mitotic recombination or gene conversion, Assay Code: YEH+, Evaluation Type: Evaluation A (Pre-1980)): active; positive
- mutagenic call [6]: active; positive
- mutagenic call (Species/Cell Type: Vicia faba, Assay Type: Chromosome aberrations, Assay Code: VIC+, Evaluation Type: Evaluation A (Pre-1980)): active; positive

SMILES: [Cl][Al]([Cl])[Cl]
- mutagenic call (Species/Cell Type: Bacillus subtilis (H17 vs M45), Assay Type: Rec-assay, spot test, DNA effects (bacterial DNA repair), Assay Code: REW-, Evaluation Type: Evaluation A (Pre-1980)): inactive; negative
- mutagenic call [3]: active; positive
- mutagenic call (Species/Cell Type: Syrian hamster embryo (SA7/SHE) cells, Assay Type: Cell transformation, viral enhanced, Assay Code: CT7-, Evaluation Type: Evaluation A (Pre-1980)): inactive; negative

SMILES: CN[C@@H](C)Cc1ccccc1
- mutagenic call (Species/Cell Type: Drosophila melanogaster, Assay Type: Sex-linked recessive lethal gene mutation, Assay Code: SRLT, Evaluation Type: Evaluation A (Pre-1980)): no conclusion

SMILES: CCOP(=O)(NC(C)C)Oc1ccc(SC)c(C)c1 (stereo unspecified)
- mutagenic call (Species/Cell Type: Nonhuman, Assay Type: Sister-chromatid exchange (SCE) in vitro, Assay Code: SC2-, Evaluation Type: Evaluation B (Post-1980)): inactive; negative

SMILES: C=COC(N)=O
- mutagenic call [1]: active; positive
- mutagenic call [2]: active; positive
- mutagenic call [4]: active; positive
- mutagenic call [5]: active; positive

SMILES: CCCCCCCCCCCCCC(=O)N(C)N=O
- mutagenic call [6]: active; positive

SMILES: CCOP(=S)(OCC)SCSP(=S)(OCC)OCC
- mutagenic call (Species/Cell Type: Bacillus subtilis (H17 vs M45), Assay Type: Rec-assay, spot test, DNA effects (bacterial DNA repair), Assay Code: REWT, Evaluation Type: Evaluation A (Pre-1980)): no conclusion
- mutagenic call (Species/Cell Type: Escherichia coli polA (W3119 vs P3478), Assay Type: Rec-assay, DNA effects (bacterial DNA repair), Assay Code: RE1T, Evaluation Type: Evaluation A (Pre-1980)): no conclusion
- mutagenic call (Species/Cell Type: Human diploid fibroblasts, Assay Type: Unscheduled DNA synthesis (UDS) in vitro, DNA effects, Assay Code: UDH-, Evaluation Type: Evaluation A (Pre-1980)): inactive; negative
- mutagenic call (Species/Cell Type: Human, Assay Type: Sister-chromatid exchange (SCE) in vitro, Assay Code: SC1-, Evaluation Type: Evaluation B (Post-1980)): inactive; negative
- mutagenic call (Species/Cell Type: Saccharomyces cerevisiae, Assay Type: Mitotic recombination or gene conversion, Assay Code: YEH-, Evaluation Type: Evaluation A (Pre-1980)): inactive; negative
- mutagenic call (Species/Cell Type: Salmonella typhimurium (one or more of the five standard strains: TA98, TA100, TA1535, TA1537, and TA1538), Assay Type: Histidine reverse gene mutation, Ames assay, Assay Code: SAL-, Evaluation Type: Evaluation A (Pre-1980)): inactive; negative

SMILES: CC(C)NCC(O)COc1cccc2[nH]ccc12 (stereo unspecified)
- mutagenic call [7]: no conclusion

SMILES: Nc1cc(Cl)c(Cl)cc1N
- mutagenic call [7]: no conclusion

SMILES: CCOC(=O)COc1ccc(Cl)cc1CCl (tested in a mixture with another compound)
- mutagenic call (Species/Cell Type: Saccharomyces cerevisiae, Assay Type: Reverse gene mutation, Assay Code: YERT, Evaluation Type: Evaluation A (Pre-1980)): no conclusion

SMILES: CCCCCN(CCCC)N=O
- mutagenic call (Species/Cell Type: Salmonella typhimurium (one or more of the five standard strains: TA98, TA100, TA1535, TA1537, and TA1538), Assay Type: Histidine reverse gene mutation, Ames assay, Assay Code: SAL+*, Activation: With metabolic activation, Evaluation Type: Evaluation A (Pre-1980)): active; positive

SMILES: OCCN1CN(CCO)CN(CCO)C1
- mutagenic call (Species/Cell Type: Mammalian polychromatic erythrocytes, Assay Type: Micronucleus test, chromosome aberrations, Assay Code: MNTT, Evaluation Type: Evaluation A (Pre-1980)): no conclusion

SMILES: C/C(=C/c1ccc(SC#N)cc1)[N+](=O)[O-]
- mutagenic call (Species/Cell Type: Bacillus subtilis (H17 vs M45), Assay Type: Rec-assay, spot test, DNA effects (bacterial DNA repair), Assay Code: REW+, Evaluation Type: Evaluation A (Pre-1980)): active; positive

SMILES: Nc1cccc2c1-c1ccccc1C2
- mutagenic call (Species/Cell Type: Fischer rat embryo (RLV/1706) cells, Assay Type: Cell transformation, viral enhanced, Assay Code: CTR-, Evaluation Type: Evaluation A (Pre-1980)): inactive; negative
- mutagenic call (Species/Cell Type: Mouse embryo (AKR/ME) cells, Assay Type: Cell transformation, Assay Code: CTK-, Evaluation Type: Evaluation A (Pre-1980)): inactive; negative
